# Measured values reported in ChEMBL document CHEMBL1177754, “Onionin A from Allium cepa inhibits macrophage activation” (J Nat Prod, 2010).
# Activity calls are given as the source filed them. The calls are words filed in the database; no cut-off is given here.
# Tested on: Macrophage
# Assay: Inhibition of CD163 expression in human monocyte-derived macrophages at 30 uM for 24 hrs treated before IL10 challenge for 2 days by cell-ELISA
# Assay type: functional, cell-based
smiles,measurement,value
C/C=C/[C@H]1[C@H](C)[C@@H](C)[C@@H]([SH+][O-])[S+]1[O-] (stereo partly specified),Activity,Active
